Experimental findings from patent EP4520331A1, “PHARMACEUTICAL COMPOSITION COMPRISING TRPV4 INHIBITOR FOR USE IN THE PREVENTION OR TREATMENT OF CEREBRAL CAVERNOUS MALFORMATIONS (CCM)” (Université Grenoble Alpes, priority 2023, dated 2025) are described below.

Structures are written as SMILES.

Common to all, as to type: cell-based, Human
Assay [1] deals with CCM2-depleted endothelial cells. The assay can be described thus: Ki67 immunofluorescence staining (proliferative marker). The following applies: 400nM added to siCCM2 ECs; Figure 1E. As to the method: (§1) Pooled Human Umbilical Vein Endothelial Cells (HUVEC) were obtained from Pelobiotech. Upon reception, HUVEC at P0 were expanded over 2 passages in 100µg/ml collagen 1 (from rat tail, BD) coated flasks in complete EGM-2 medium (Lonza) supplemented with 100 U/ml penicillin and 100 µg/ml streptomycin at 37°C in a 5% CO2 - 3% O2 humidified chamber. HUVEC at passage 3 were transfected twice at 24 h-intervals with 30 nM siRNA and Lipofectamine RNAi max (Life Technologies, ref. 13778-150) according to the manufacturer's instructions in OptiMEM at 37°C in a regular 5% CO2 in a humidified chamber. For double transfections, 30 nM of each siRNA duplexes (Dharmacon smartpool ON-TARGET plus Thermo Scientific) was used: Non-targeting siRNA #1 (ref. D-001810-01), CCM2 siRNA (ref. L-014728-01) and TRPV4 siRNA (ref. L-004195-00).
Transfected HUVEC were seeded at 3x10^4 cells (sparsed, for Ki67 staining) or […] (confluent, for VE-cadherin staining) in 24-well plates on coverslips coated with 10 µg/ml fibronectin (from human plasma, Sigma Aldrich) and incubated overnight (Ki67 experiment) or for 48h (VE-cadherin experiment) in complete EBM-2 medium in presence or absence of the calcium channels inhibitors dissolved in DMSO. […] The percentage of Ki67 positive cells was counted manually out of more than 130 cells total.

The test system is the same in assay [2]. The assay can be described thus: xCELLigence proliferation assay (RTCA impedance). The note with it: 400nM added to siCCM2 ECs; RTCA xCelligence impedance over 24h; Figure 1B. As to the method: as §1
Proliferation assay was performed using the xCELLigence Real-Time Cell Analysis (RTCA) DP instrument in combination with E-plate 16 (ACEA Biosciences) coated with 100µL of 100µg/mL collagen 1 (from rat tail) for 30 min at 37°C and washed 2 times with PBS 1X. 50 µL of complete EBM-2 medium was added and baseline without cells was made with RTCA software. 2.5x103 transfected HUVEC (4 wells per condition) were seeded 24h after the second round of transfection in 50µL of complete EBM-2-medium. […] Impedance measurements were recorded every 5 min during 24h. […]

Assay [3] has the same test system. The assay is described as follows: Gelatin degradation assay (ECM degradation). The following applies: 800 nM; siCCM2 HUVEC; Figure 3B. As to the method: Pooled Human Umbilical Vein Endothelial Cells (HUVEC) were obtained from Pelobiotech. Upon reception, HUVEC at P0 were expanded over 2 passages in 100µg/ml collagen 1 (from rat tail, BD) coated flasks in complete EGM-2 medium (Lonza) supplemented with 100 U/ml penicillin and 100 µg/ml streptomycin at 37°C in a 5% CO2 - 3% O2 humidified chamber. HUVEC at passage 3 were transfected twice at 24 h-intervals with 30 nM siRNA and Lipofectamine RNAi max (Life Technologies, ref. 13778-150) according to the manufacturer's instructions in OptiMEM at 37°C in a regular 5% CO2 in a humidified chamber. […]
Coverslips in 24 well-plates were coated with gelatin-Alexa488 dye as previously described (70). siCT and siCCM2 HUVEC were seeded 24h after the second siRNA transfection at 3x10^4/well in OptiMEM medium in presence or absence of the calcium channels inhibitors overnight at 37°C in a 5% CO2 incubator. […] For a quantitative analysis of the degradative skill of siRNA transfected cells, 10 images per condition were randomly acquired and were converted to binary images using B&W thresholding on Imaged. The total area of the black zones corresponding to the total area of degradation of the fluorescent gelatin was measured.

As for `O=C(NC1(c2ccccc2)CC1)c1c(CN2CCC(N3CCCCC3)CC2)c(-c2cccc(C(F)(F)F)c2)nc2cc(Br)ccc12` [GSK2193874, 3-([1,4'-Bipiperidin]-1'-ylmethyl)-7-bromo-N-(1-phenylcyclopropyl)-2-[3-(trifluoromethyl)phenyl]-4-quinolinecarboxamide], the “proliferative marker Ki67” value in assay [1] is listed as “restoration”. Besides, the proliferation rate result in assay [2] was “restoration”. In assay [3], the “CCM2-depleted ECs capacity to degrade the ECM such as gelatin” value was “inhibits”.
